# “Also recorded” adds a separate entry of the source. Where a SMILES comes first, the peptide text is derived from it. [ ]: non-standard residue; d: D form. The star is where a group is joined. Boc = CC(C)(C)OC(=O)*; OtBu = CC(C)(C)O*; tBu = CC(C)(C)*
# Legend:
# [1] = Solubility of peptides in ethyl acetate; type: physicochemical; settings: 10 mg/mL added, room temperature 30 minutes, FIG. 3
# Method: To evaluate solubility in ethyl acetate, each peptide was weighed and added to a centrifuge tube and ethyl acetate (HPLC grade; residue after evaporation <0.0001%) was added to give a concentration of 10 mg/mL. The tubes were sealed, vortexed and kept at room temperature for 30 minutes with vortexing every 10 minutes. The tubes were then centrifuged for 5 minutes at 10,000 rpm and the supernatant was removed to a previously weighed tube. The ethyl acetate was evaporated under argon and the tubes weighed to determine the amount of peptide that had been contained in the supernatant. The percent of the originally added peptide that was dissolved in the supernatant is shown on the Y-axis. he data are mean±S.D. Control represents sham treated tubes; SEQ ID NO:3 and SEQ ID NO:4 were both synthesized from all D-amino acids. The sequence Boc-Phe-Arg-Glu-Leu-OtBu (SEQ ID NO:5, SEQ ID NO:250 in copending application U.S. Ser. No. 10/649,378) was synthesized from all L-amino acids.
# [2] = Solubility in aqueous buffer at pH 7.0; type: physicochemical; settings: pH 7.0, data not shown
# [3] = Interaction of peptide with DMPC in an aqueous environment (dialysis, negative-stain electron micrograph); type: physicochemical; settings: for appearance of solution after dialysis (deoxycholate removed): DMPC: peptide 1:10 wt:wt in PBS; for Bilayer dimension of stacked bilayers / Spacing between bilayers in the stack / Vesicular structures, size: DMPC: peptide 1:10 wt:wt, aqueous environment
# Method: FIG. 4 SEQ ID NO:4 forms 7.5 nm particles when mixed with DMPC in an aqueous environment. To 1 mg/ml of DMPC suspension in phosphate buffered saline (PBS) was added 10% deoxycholate until the DMPC was dissolved. SEQ ID NO: 4 or SEQ ID NO:3 were added (DMPC: peptide; 1:10; wt:wt) and the reaction mixture dialyzed. […] The figure is an electron micrograph prepared with negative staining and at 147,420× magnification. The arrows indicate SEQ ID NO: 4 particles measuring 7.5 nm (they appear as small white particles).
# To 1 mg/ml of DMPC suspension in phosphate buffered saline (PBS) was added 10% deoxycholate until the DMPC was dissolved. Peptides, SEQ ID NO:4 or SEQ ID NO:3, were added (DMPC: peptide; 1:10; wt:wt) and the reaction mixture dialyzed.
# [4] = system: LDL-induced monocyte chemotactic activity in human artery wall cocultures; test: Monocyte chemotactic activity in human artery wall cell coculture with HDL of peptide-fed apoE null mice; type: in vivo; settings: female apoE null mice, 200 μg/gm chow, 15 weeks, 50 μg/mL mouse HDL, FIG. 13
# Description: Lipoproteins, human artery wall cocultures, and monocytes can be prepared and monocyte chemotactic activity (MCA) determined as previously described (Van Lenten et al. (2002) Circulation, 106: 1127-1132). Induction of MCA by a standard control LDL can be determined in the absence or presence of the subject's HDL. Values in the absence of HDL are typically normalized to 1.0. Values greater than 1.0 after the addition of HDL indicate pro-inflammatory HDL; values less than 1.0 indicate anti-inflammatory HDL.
# (§1) Female apoE null mice at age 8 weeks were given no additions to their diet (Chow) or received 200 μg/gm chow of SEQ ID NO:3 (+254) or 200 μg/gm chow of SEQ ID NO: 4 (+258), both synthesized from all D-amino acids. After 15 weeks the mice were bled and their plasma fractionated by FPLC and their HDL (mHDL) tested in a human artery wall cell coculture. A standard human LDL (at 100 μg/mL of LDL-cholesterol) was added alone (LDL) or not added (no addition) or was added with 50 μg/mL of normal human HDL (hHDL) or 50 μg/mL of mouse HDL (mHDL) to human artery wall cocultures and the resulting monocyte chemotactic activity was determined and plotted on the Y-axis.
# apoE null mice [5] = test: Atherosclerosis in apoE null mice fed peptide in chow for 15 weeks; type: in vivo; settings: female apoE null mice, 200 μg/gm chow
# Method: The aortic root (aortic sinus) lesion score was determined in the apoE null mice described in FIG. 13. The number of mice in each group is shown (n=) at the bottom of the figure and a representative section for each group is shown at the top of the figure.
# The percent aortic surface containing atherosclerotic lesions was determined in en face preparations in the apoE null mice described in FIG. 13. The number of mice in each group is shown (n=) at the bottom of the left panel and a representative aorta for mice fed chow alone or chow supplemented with. SEQ ID NO:4 is shown in the right panel.
# as §1
# [6] = Interaction of peptide with DMPC in an aqueous environment (dialysis, negative-stain electron micrograph); type: physicochemical; settings: DMPC: peptide 1:10 wt:wt
# apoE null mice [7] = test: Atherosclerosis in apoE null mice fed SEQ ID NO:5 in chow for 12 weeks; type: in vivo; settings: 200 μg/gm chow, p=0.012, FIG. 16
SMILES,solubility in ethyl acetate [1],solubility in aqueous buffer at pH 7.0 [2],appearance of solution after dialysis (deoxycholate removed) [3],Bilayer dimension of stacked bilayers [3],Spacing between bilayers in the stack [3],"Vesicular structures, size [3]","Vesicular structures, size ([3]; listed as SEQ ID NO: 4)",Bilayer dimension of stacked bilayers ([3]; listed as SEQ ID NO: 6),Spacing between bilayers in the stack ([3]; listed as SEQ ID NO: 6),"Vesicular structures, size ([3]; listed as SEQ ID NO: 6)",HDL rendered anti-inflammatory (monocyte chemotactic activity) [4],HDL rendered anti-inflammatory (monocyte chemotactic activity) ([4]; listed as SEQ ID NO: 4),"aortic root (aortic sinus) atherosclerosis, lesion score (apoE null mice [5]; FIG. 14)","aortic root (aortic sinus) atherosclerosis, lesion score (apoE null mice [5]; FIG. 14, listed as SEQ ID NO: 4)","aortic atherosclerosis in en face preparations, percent aortic surface containing lesions (apoE null mice [5]; FIG. 15)","aortic atherosclerosis in en face preparations, percent aortic surface containing lesions (apoE null mice [5]; FIG. 15, listed as SEQ ID NO: 4)","diameter of particles formed with DMPC (Size ""Nascent HDL Particles"") ([6]; listed as SEQ ID NO: 4)","diameter of particles formed with DMPC (Size ""Nascent HDL Particles"") ([6]; listed as SEQ ID NO: 6)",% Aortic Surface Area with Lesions in en face preparations (apoE null mice [7]),"formation of 7.5 nm particles, stacked lipid-peptide bilayers, 38 nm vesicular structures ([3]; conditions of FIG. 4, data not shown)"
"CC(C)(C)OC[C@@H](NC(=O)[C@@H](CCC(=O)O)NC(=O)[C@@H](CCCNC(=N)N)NC(=O)[C@@H](CCCCNC(=O)OC(C)(C)C)NC(=O)OC(C)(C)C)C(=O)OC(C)(C)C [SEQ ID NO:4, Boc-Lys(εBoc)-Arg-Glu-Ser(tBu)-OtBu] (Boc-[dK](Boc)[dR][dE][dS](tBu)-OtBu)",very soluble; also recorded: highly soluble,soluble,remained clear,3.4 to 4.1 nm,approximately 2 nm,approximately 38 nm,approximately 38 nm,3.4-4.1 nm,2.0 nm,38 nm,renders apoE null HDL anti-inflammatory,rendered anti-inflammatory,significantly decreases,significantly reduced,significantly decreases,significantly decreased,approximately 7.5 nm,7.5 nm,–,–
"CC(C)C[C@H](NC(=O)[C@H](CCC(=O)O)NC(=O)[C@H](CCCNC(=N)N)NC(=O)[C@H](Cc1ccccc1)NC(=O)OC(C)(C)C)C(=O)OC(C)(C)C [SEQ ID NO:5, Boc-Phe-Arg-Glu-Leu-OtBu] (Boc-FREL-OtBu)",very soluble,–,–,–,–,–,–,–,–,–,–,–,–,–,–,–,–,–,significantly decreases atherosclerosis,–
"CC(C)(C)OC[C@@H](NC(=O)[C@@H](CCCNC(=N)N)NC(=O)[C@@H](CCC(=O)O)NC(=O)[C@@H](CCCCNC(=O)OC(C)(C)C)NC(=O)OC(C)(C)C)C(=O)OC(C)(C)C [SEQ ID NO:3, Boc-Lys(εBoc)-Glu-Arg-Ser(tBu)-OtBu] (Boc-[dK](Boc)[dE][dR][dS](tBu)-OtBu)",poorly soluble,–,turbid,–,–,–,–,–,–,–,not,–,not,–,not,–,–,–,–,did not form

# Source: patent US20060173067A1, “Small molecules for the treatment of atherosclerosis” (The Regents of the University of California, priority 2004, published 2006)
